Values of other authors as cited in patent US6845777B2, “Composition to reduce or quit smoking addiction” (priority 2001, dated 2005).

Experiments:
[1] = average adult

## CN1CCCC1c1cccnc1 (centres unmarked) [Nicotine]
[1]
  lethal unit dose: about 60 mg
In vivo
  nicotine from the intestine that reaches the bloodstream in a not metabolized form: about 30%
  peak levels in the arteries: approximately 40 micro-grams per milliliter of blood
  plasma half-life: 0.5 h and 2 h
Inhalation of tobacco smoke
  nicotine inhaled from a cigarette that is absorbed into the bloodstream: ≤ 90%
